Results on 3 sequences are retold here after article PMC3197222 (Journal of the American Chemical Society, 2009).

“Also recorded” adds a separate entry of the source.

The test system of assay [1] is DNase. As to the kind of experiment: Phage-based ELISA of phage-displayed DNase ligands. In kind it is binding. The settings on record: for binding to DNase, unwrapped phage-displayed ligand: absence of 1-ext wrapper, versus M13-KO7 phage; for binding affinity and specificity for DNase, phage-displayed: phage-based ELISA (Figure 5); for binding to DNase, wrapped phage-displayed ligand: wrapped with 1-ext (2.5 µM), versus M13-KO7 phage control. A general note: In an ELISA, binding on a coated surface is turned into a signal by an enzyme label.

Assay [2] deals with DNase. As to conditions: selected with Lys18-wrapped phage library; ref [15]; cited from earlier work.
Assay [3] concerns DNase. Nature of the assay: SPR imaging of phage-displayed DNase-1 adsorption. In kind it is binding. As to conditions: phage-displayed DNase-1, 2.5 nM phage wrapped in 2.5 µM polymer 1 in PBS (Figure S2).

Consider EEWYCLRQGTFETLFF [DNase-2], for which, in the assay with DNase [1], the “binding to DNase, unwrapped phage-displayed ligand” value is on record as “stronger binding to DNase than the negative control M13-KO7 phage”; the “binding affinity and specificity for DNase, phage-displayed” value was “moderate to high affinity binding and specificity for DNase”; the “binding to DNase, wrapped phage-displayed ligand” value is “bound with higher affinity to DNase than the M13-KO7 phage control, with DNase-2 having much greater apparent affinity; also recorded: strong binding to DNase was retained”.
For EEWYCLRQGTFETLYCFW [DNase-L], the “DNase ligand (previous report)” value in the assay on DNase [2] is “DNase ligand”.
On to RWCLSELSG [DNase-1], for which, in the assay on DNase [3], the “SPR imaging binding to DNase” value is “binds well to the target DNase”. Also, in the assay with DNase [1], the “binding to DNase, unwrapped phage-displayed ligand” value is on record as “stronger binding to DNase than the negative control M13-KO7 phage”; the “binding affinity and specificity for DNase, phage-displayed” value was “moderate to high affinity binding and specificity for DNase”; the “binding to DNase, wrapped phage-displayed ligand” value is “bound with higher affinity to DNase than the M13-KO7 phage control”.
